Like-named read-outs stand apart in the source and are kept apart here.
Experiments:
[1] = test system: MMP13; assay: Histamine induced acute articular inflammation in mouse: MMP13 fluorokine ELISA of cartilage extract; format: in vivo; details: for cartilage extract MMP13 levels: C57B16 mice, oral
Method: (§1) At 1-hour post oral treatment with either vehicle hydroxypropyl methylcellulose (HPMC) or E1, C57B16 mice were anaesthetized under isofluorane by inhalation. An H1 specific receptor antagonist desloratadine (5 mg/kg) was used as a positive control. The left hind knee was shaved, dampened with 70% ethanol and injected intra articularly into the knee joint (6 μl volume) with either saline or histamine (5 μM) using a glass Hamilton syringe and 30-gauge needle. Mice were allowed to recover in their home cage and kept on study for 48 hours post injection and dosed with compound.
(§2) After synovial lavage, the joint was disarticulated and cartilage was removed with a scalpel from the tibial plateau & femoral condyle, taking care to minimise the amounts of bone. Cartilage samples were weighed and snap frozen. The cartilage from individual animals was extracted in 200 μl high salt buffer (HSB) overnight at 4° C. with gentle agitation.
(§3) Samples were centrifuged at 10000 rpm for 10 min and the HSB cartilage extract decanted and stored at −80° C. prior to analysis.
MMP13 fluorokine ELISA (96-Well Plate Format)
HSB cartilage extracts were tested in duplicate at a 1:5 dilution. There were no deviations from the kit instructions (F13M00, R&D Systems) and the plate was read using an excitation wavelength of 320 nm and an emission wavelength of 405 nm.

[2] = test system: S-GAG (aggrecanase activity); assay: Histamine induced acute articular inflammation in mouse: S-GAG analysis (DMMB assay) of cartilage extract; format: in vivo; details: C57B16 mice, oral
Method: as §1, §2, §3
HSB cartilage extracts were digested with hyaluronidase (110 units/ml) 37° C. for 3 hrs followed by papain digestion at 60° C. overnight. Digested samples were then centrifuged at 12000 g for 15 minutes. […] The plate was read immediately at 532 nm and 620 nm wavelengths and data calculated as O.D 532 nm/O.D 620 nm minus background. […]

[3] = Mouse PK in low dose pharmacodynamic study (micro-sampling, LC-MS/MS); format: in vivo; details: mice, oral 0.1, 0.001 and 0.0001 mg/kg b.i.d. for 48 hrs, blood
Method: Mice were weighed and orally dosed according to weight at a dose volume of 10 ml/kg (dosed at 0.1 mg/kg, 0.001 mg/kg and 0.0001 mg/kg b.i.d. for 48 hrs). The PK and low dose pharmacodynamic studies were performed in the same group of animals.
Individual mice were repeatedly sampled at various timepoints over the 48 hr duration of the study by taking small volumes of blood by micro-sampling technique. After heating and mild restrain behind a Perspex stand, the tip of the tail was pricked with a 24 gauge needle and whole blood collected into an EDTA 20 μl glass micro sampling tubes. The 20 μl blood sample was then mixed with 80 μls of distilled water and frozen until analysis.
At study termination the mice were culled using CO2 gas. A blood volume of about 0.4 mL was obtained by cardiac puncture. A volume of whole blood was then mixed with distilled water to lyse the cells (ratio 1:1) and stored for analysis.

[4] = In vivo PK in dog (Vss, Fabs)
Excerpt: (§4) This Fabs parameter was then adjusted to bioavailability (F) by correction for hepatic extraction. […] The clinical dosing frequency desired was assumed to be once daily.

[5] = Human dose prediction; details: used for human Vss estimate
Excerpt: Human dose prediction for clinical studies requires an estimate of human PK parameters important for defining the elimination T1/2 and the shape and magnitude of the plasma concentration vs time profile at a particular dose. These estimated parameters include Clearance, Volume of Distribution at Steady State (Vss), absorption rate constant (Ka), bioavailability (F) and dosing frequency. Human dose predictions also require some pharmacological evidence as to how exposure relates to efficacy (McGinnity, Collington, Austin & Riley, Current Drug Metabolism 2007 8 463-479).
Having defined the shape and magnitude of the human plasma concentration vs time curve, the final step was to adjust the dose so that plasma concentrations are attained that are likely to achieve efficacy. […] It was impossible to quantify the compound at these dose levels; consequently plasma concentrations observed at a higher oral dose (about 1 mg/kg) were extrapolated down to that likely at efficacious doses, assuming linear kinetics between the two. Finally, in the absence of a real PK/PD relationship in the mouse, it was assumed that efficacy in humans would be related to plasma AUC. Consequently, the human dose was adjusted to give, in conjunction with the estimated human PK parameters defined above, a human AUC value similar to that observed in mouse at efficacious doses.

[6] = rat, in vivo
Excerpt: as §4

[7] = in vivo; details: mouse
Method: In order to gain confidence in predicting circulating levels, mouse PK at 1 mg/kg oral dosing was subsequently carried out.
Blood concentrations are given in nM.

[8] = in vivo; details: rat
Excerpt: as §4

[9] = in vivo; details: guinea pig
Excerpt: as §4

CNCc1ccc(-c2cnc3c(c2)C[C@@]2(CN4CCC2CC4)O3)s1 [Example E1, N-methyl-1-{5-[(2R)-3′H-spiro[4-azabicyclo[2.2.2]octane-2,2′-furo[2,3-b]pyridin]-5′-yl]-2-thienyl}methanamine]
cartilage extract MMP13 levels ([1]; 0.0001 mg/kg b.i.d. for 48 hrs (further study, FIG. 6)): decreased levels of MMP13
cartilage extract MMP13 levels ([1]; 0.001 mg/kg b.i.d. for 48 hrs (further study, FIG. 6)): decreased levels of MMP13
cartilage extract MMP13 levels ([1]; 0.1 mg/kg b.i.d. for 48 hrs (further study, FIG. 6)): decreased levels of MMP13
cartilage extract MMP13 levels ([1]; 0.1 mg/kg b.i.d. for 48 hrs, tibial cartilage (first study, FIG. 4)): decreased levels of MMP13
cartilage extract MMP13 levels ([1]; 1 mg/kg b.i.d. for 48 hrs, tibial cartilage): decreased levels of MMP13
cartilage extract MMP13 levels ([1]; 1 mg/kg once over the 48 hr study period, tibial cartilage): decreased levels of MMP13
dose at which efficacy against MMP down-regulation and joint swelling was observed (as low as) ([1]; mouse PD studies): 0.1 µg/kg
S-GAG cartilage levels ([2]; 1 mg/kg b.i.d. for 48 hrs): significantly reduced
S-GAG cartilage levels ([2]; 1 mg/kg single dose over 48 hr): significantly reduced
circulating levels [3]: could not be detected in many animals
Fabs (fraction absorbed) ([4]; dog): 70%
Vd ([4]; dog in vivo): 27 L/kg
Vss derived by simple allometry across rat and dog [5]: 5.7 L/kg
Fabs (fraction absorbed) [6]: 83%
concentration at 0 h ([7]; 0.001 mg/kg): 0.0003 nM
concentration at 0.17 h ([7]; 0.001 mg/kg): 0.0017 nM
concentration at 0.33 h ([7]; 0.001 mg/kg): 0.0058 nM
concentration at 0.5 h ([7]; 0.001 mg/kg): 0.0081 nM
concentration at 0.75 h ([7]; 0.001 mg/kg): 0.0119 nM
concentration at 1 h ([7]; 0.001 mg/kg): 0.0156 nM
concentration at 2 h ([7]; 0.001 mg/kg): 0.0266 nM
concentration at 4 h ([7]; 0.001 mg/kg): 0.0326 nM
concentration at 6 h ([7]; 0.001 mg/kg): 0.0332 nM
concentration at 8 h ([7]; 0.001 mg/kg): 0.0349 nM
concentration at 10 h ([7]; 0.001 mg/kg): 0.0297 nM
concentration at 12 h ([7]; 0.001 mg/kg): 0.0284 nM
concentration at 24 h ([7]; 0.001 mg/kg): 0.0172 nM
concentration at 0 h ([7]; 0.01 mg/kg): 0 nM
concentration at 0.17 h ([7]; 0.01 mg/kg): 0.02 nM
concentration at 0.33 h ([7]; 0.01 mg/kg): 0.06 nM
concentration at 0.5 h ([7]; 0.01 mg/kg): 0.08 nM
concentration at 0.75 h ([7]; 0.01 mg/kg): 0.12 nM
concentration at 1 h ([7]; 0.01 mg/kg): 0.16 nM
concentration at 2 h ([7]; 0.01 mg/kg): 0.27 nM
concentration at 4 h ([7]; 0.01 mg/kg): 0.33 nM
concentration at 6 h ([7]; 0.01 mg/kg): 0.33 nM
concentration at 8 h ([7]; 0.01 mg/kg): 0.35 nM
concentration at 10 h ([7]; 0.01 mg/kg): 0.3 nM
concentration at 12 h ([7]; 0.01 mg/kg): 0.28 nM
concentration at 24 h ([7]; 0.01 mg/kg): 0.17 nM
concentration at 0 h ([7]; 0.03 mg/kg): 0.01 nM
concentration at 0.17 h ([7]; 0.03 mg/kg): 0.05 nM
concentration at 0.33 h ([7]; 0.03 mg/kg): 0.17 nM
concentration at 0.5 h ([7]; 0.03 mg/kg): 0.24 nM
concentration at 0.75 h ([7]; 0.03 mg/kg): 0.36 nM
concentration at 1 h ([7]; 0.03 mg/kg): 0.47 nM
concentration at 2 h ([7]; 0.03 mg/kg): 0.8 nM
concentration at 4 h ([7]; 0.03 mg/kg): 0.98 nM
concentration at 6 h ([7]; 0.03 mg/kg): 1 nM
concentration at 8 h ([7]; 0.03 mg/kg): 1.05 nM
concentration at 10 h ([7]; 0.03 mg/kg): 0.89 nM
concentration at 12 h ([7]; 0.03 mg/kg): 0.85 nM
concentration at 24 h ([7]; 0.03 mg/kg): 0.52 nM
concentration at 0 h ([7]; 0.1 mg/kg): 0.03 nM
concentration at 0.17 h ([7]; 0.1 mg/kg): 0.17 nM
concentration at 0.33 h ([7]; 0.1 mg/kg): 0.58 nM
concentration at 0.5 h ([7]; 0.1 mg/kg): 0.81 nM
concentration at 0.75 h ([7]; 0.1 mg/kg): 1.19 nM
concentration at 1 h ([7]; 0.1 mg/kg): 1.56 nM
concentration at 2 h ([7]; 0.1 mg/kg): 2.66 nM
concentration at 4 h ([7]; 0.1 mg/kg): 3.26 nM
concentration at 6 h ([7]; 0.1 mg/kg): 3.32 nM
concentration at 8 h ([7]; 0.1 mg/kg): 3.49 nM
concentration at 10 h ([7]; 0.1 mg/kg): 2.97 nM
concentration at 12 h ([7]; 0.1 mg/kg): 2.84 nM
concentration at 24 h ([7]; 0.1 mg/kg): 1.72 nM
AUC ([7]; po, 0.001 mg/kg): 0.29 nM·h
Cmax ([7]; po, 0.001 mg/kg): 0.035 nM
AUC ([7]; po, 0.01 mg/kg): 2.94 nM·h
Cmax ([7]; po, 0.01 mg/kg): 0.349 nM
AUC ([7]; po, 0.03 mg/kg): 8.81 nM·h
Cmax ([7]; po, 0.03 mg/kg): 1.05 nM
AUC ([7]; po, 0.1 mg/kg): 29.4 nM·h
Cmax ([7]; po, 0.1 mg/kg): 3.49 nM
AUC ([7]; po, 1 mg/kg): 294 nM·h
Cmax ([7]; po, 1 mg/kg): 35 nM
concentration at 0 h ([7]; po, 1 mg/kg): 0.31 nM
concentration at 0.17 h ([7]; po, 1 mg/kg): 1.65 nM
concentration at 0.33 h ([7]; po, 1 mg/kg): 5.75 nM
concentration at 0.5 h ([7]; po, 1 mg/kg): 8.08 nM
concentration at 0.75 h ([7]; po, 1 mg/kg): 11.9 nM
concentration at 1 h ([7]; po, 1 mg/kg): 15.6 nM
concentration at 2 h ([7]; po, 1 mg/kg): 26.6 nM
concentration at 4 h ([7]; po, 1 mg/kg): 32.6 nM
concentration at 6 h ([7]; po, 1 mg/kg): 33.2 nM
concentration at 8 h ([7]; po, 1 mg/kg): 34.9 nM
concentration at 10 h ([7]; po, 1 mg/kg): 29.7 nM
concentration at 12 h ([7]; po, 1 mg/kg): 28.4 nM
concentration at 24 h ([7]; po, 1 mg/kg): 17.2 nM
Vd [8]: 35.5 L/kg
Vd [9]: 10.2 L/kg

Reference: US20090156625A1, “Novel Use of a Nicotinic Receptor Agonist 156” (AstraZeneca AB, priority 2007, published 2009)
